In patent publication US8691855B2, “Compounds, isomer thereof, or pharmaceutically acceptable salts thereof as vanilloid receptor antagonist and pharmaceutical compositions containing the same” (Amorepacific Corporation, priority 2008, dated 2014) one finds IC50 and inhibition data, which are given here for 22 molecules.

Usually IC50 stands for the concentration at which inhibition is half-maximal. As a reminder, the inhibition is the relative decrease from the control value, in per cent.

This test deals with T1, vanilloid receptor (Rattus norvegicus, UniProt O35433).
T1 construct: DRG nerve cells from the primary culture of 2 days were equilibrated; endogenous in cells; host or cells: primary culture of dorsal root ganglion neurons from neonatal SD rats
Briefly: 45Ca influx test (antagonist calcium uptake test) in rat DRG neurons stimulated with capsaicin. The format is cell-based. Particulars: neonatal SD rat DRG neurons, capsaicin 0.5 μM; for IC50: 45Ca. As to the method: 1) Separation of spinal dorsal root ganglia (DRG) in newborn rats and primary culture thereof
Neonatal (2-3 clay old or younger than 2-3 day old) SD rats were put in ice for 5 minutes to anesthetize and disinfected with 70% ethanol. DRG of all part of spinal cord were dissected (Wood et al., 1988, J. Neurosci. 8, pp 3208-3220) and collected in DME/F12 medium to which 1.2 g/l sodium bicarbonate and 50 mg/l gentamycin were added. The DRG were incubated sequentially at 37° C. for 30 mins in 200 U/ml collagenase and 2.5 mg/ml trypsin, separately. The ganglia were washed twice with DME/F12 medium supplemented with 10% horse serum, triturated through a fire-polished Pasteur pipette, filtered through Nitex 80 membrane to obtain single cell suspension and the suspension was washed once more. This was subjected to centrifugation, then resuspended in cell culture medium at certain level of cell density. As the cell culture medium, DME/F12 medium supplemented with 10% horse serum was diluted with identical medium conditioned by C6 glioma cells 2 clays on a confluent monolayer (1:1), and NGF (Nerve Growth Factor) was added to adjust 200 ng/ml as final concentration. After the cells were grown 2 days in medium where cytosine arabinoside (Ara-C, 100 μM) was added to kill dividing nonneuronal cells, medium was changed to one without Ara-C. The resuspended cells were plated at a density of 1500-2000 neurons/well onto Terasaki plates previously coated with 10 μg/ml poly-D-ornithine.
2) ^45Ca Influx Experiments
DRG nerve cells from the primary culture of 2 days were equilibrated by washing 4 times with HEPES (10 mM, pH 7.4)-buffered Ca^2+, Mg^2+-free HBSS (H-HBSS). The solution in each well was removed from the individual well. Medium containing the test compound plus capsaicin (final concentration 0.5 μM) and ^45Ca (final concentration 10 μCi/ml) in H-HBSS was added to each well and incubated at room temperature for 10 nuns. Terasaki plates were washed five times with H-HBSS and dried at room temperature. To each well, 0.3% SDS (10 μl) was added to elute ^45Ca. After the addition of scintillation cocktail of into each well, the amount of ^45Ca influx into neuron was measured by counting radioactivity. Antagonistic activities of test compounds against vanilloid receptor were calculated as percent of the inhibition of maximal response of capsaicin at a concentration of 0.5 μM.

[1] abbreviates: DRG neuron, read-out: Antagonist Calcium Uptake Test, percent inhibition of capsaicin response.

T1 sequence (O35433 whole entry): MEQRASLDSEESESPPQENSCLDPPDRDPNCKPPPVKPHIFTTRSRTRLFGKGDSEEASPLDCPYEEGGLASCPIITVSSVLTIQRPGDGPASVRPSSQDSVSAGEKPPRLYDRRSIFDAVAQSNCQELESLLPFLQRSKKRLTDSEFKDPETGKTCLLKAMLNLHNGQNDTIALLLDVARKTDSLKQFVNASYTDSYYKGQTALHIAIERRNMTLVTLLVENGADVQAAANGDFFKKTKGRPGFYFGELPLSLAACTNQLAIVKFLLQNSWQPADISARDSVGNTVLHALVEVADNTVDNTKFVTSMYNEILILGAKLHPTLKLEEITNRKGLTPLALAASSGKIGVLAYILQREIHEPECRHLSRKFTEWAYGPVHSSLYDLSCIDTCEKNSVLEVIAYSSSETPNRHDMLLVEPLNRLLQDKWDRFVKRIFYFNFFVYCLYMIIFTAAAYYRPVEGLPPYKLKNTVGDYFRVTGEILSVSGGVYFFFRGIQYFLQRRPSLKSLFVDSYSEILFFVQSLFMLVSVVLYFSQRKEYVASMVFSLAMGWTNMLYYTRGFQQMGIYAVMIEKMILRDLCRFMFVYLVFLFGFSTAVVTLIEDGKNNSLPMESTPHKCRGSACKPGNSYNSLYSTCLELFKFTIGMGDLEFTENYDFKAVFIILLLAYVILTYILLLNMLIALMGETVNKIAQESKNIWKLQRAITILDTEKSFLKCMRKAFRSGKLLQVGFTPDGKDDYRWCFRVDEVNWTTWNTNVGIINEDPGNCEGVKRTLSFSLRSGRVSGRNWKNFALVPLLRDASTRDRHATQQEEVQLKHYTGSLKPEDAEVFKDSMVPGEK

Take `C[C@@H](NC(=O)c1coc(Oc2cccc(C(F)(F)F)c2Cl)n1)c1cc(F)c(NS(C)(=O)=O)c(F)c1` [Example 45, 2-(2-Chloro-3-trifluoromethyl-phenoxy)-oxazole-4-carboxylic acid [1-(3,5-difluoro-4-methanesulfonylamino-phenyl)-ethyl]-amide]: the IC50 stood at 770 nM. Take `C[C@@H](NC(=O)c1coc(Oc2cccc3cccnc23)n1)c1cc(F)c(NS(C)(=O)=O)c(F)c1` [Example 24, 2-(Quinolin-8-yloxy)-oxazole-4-carboxylic acid [1-(3,5-difluoro-4-methanesulfonylamino-phenyl)-ethyl]-amide]: the IC50 was over 10000 nM. The same measure, in the same setting: for `CCCc1cc(C(F)(F)F)ccc1Oc1nc(C(=O)N[C@H](C)c2cc(F)c(NS(C)(=O)=O)c(F)c2)co1` [Example 33, 2-(2-Propyl-4-trifluoromethyl-phenoxy)-oxazole-4-carboxylic acid [1-(3,5-difluoro-4-methanesulfonylamino-phenyl)-ethyl]-amide] the value was 4900 nM; for `CS(=O)(=O)Nc1c(F)cc(CNC(=O)c2ccc(-c3cccc(C(F)(F)F)c3)o2)cc1C#N` [Example 121, 5-(3-Trifluoromethyl-phenyl)-furan-2-carboxylic acid 3-cyano-5-fluoro-4-methanesulfonylamino-benzylamide], 330 nM.

Regarding `C[C@@H](NC(=O)c1coc(Oc2cccc3c2CCCC3)n1)c1cc(F)c(NS(C)(=O)=O)c(F)c1` (stereo in doubt) [Example 55, 2-(5,6,7,8-Tetrahydro-naphthalen-1-yloxy)-oxazole-4-carboxylic acid [1-(3,5-difluoro-4-methanesulfonylamino-phenyl)-ethyl]-amide], the inhibition at 1 µM (DRG neuron, @1 μM, read-out: Antagonist Calcium Uptake Test, percent inhibition of capsaicin response) was determined as 74%. Take `C[C@@H](NC(=O)c1coc(Nc2cccc(C(F)(F)F)c2)n1)c1cc(F)c(NS(C)(=O)=O)c(F)c1` [Example 44, 2-(3-Trifluoromethyl-phenylamino)-oxazole-4-carboxylic acid [1-(3,5-difluoro-4-methanesulfonylamino-phenyl)-ethyl]-amide]: the IC50 turned out to be 5500 nM.

As for `CS(=O)(=O)Nc1c(F)cc(CNC(=O)c2ccc(-c3cccc(C(F)(F)F)c3)s2)cc1F` [Example 65, 5-(3-Trifluoromethyl-phenyl)-thiophene-2-carboxylic acid 3,5-difluoro-4-methanesulfonylamino-benzylamide], the 50% inhibitory concentration (IC50) was found to be 2700 nM. Turning to `CC(C)c1cccc(Oc2nc(C(=O)N[C@H](C)c3cc(F)c(NS(C)(=O)=O)c(F)c3)cs2)c1` [Example 31, 2-(3-Isopropyl-phenoxy)-thiazole-4-carboxylic acid [1-(3,5-difluoro-4-methanesulfonylamino-phenyl)-ethyl]-amide], the IC50 came out at 2000 nM. Still for that read-out and setting: for `CCc1cccc(Oc2nc(C(=O)N[C@H](C)c3cc(F)c(NS(C)(=O)=O)c(F)c3)co2)c1` [Example 29, 2-(3-Ethyl-phenoxy)-oxazole-4-carboxylic acid [1-(3,5-difluoro-4-methanesulfonylamino-phenyl)-ethyl]-amide] the value was 280 nM; for `CS(=O)(=O)Nc1c(F)cc(CNC(=O)c2ccc(-c3cccc(C(F)(F)F)c3)o2)cc1C(F)(F)F` [Example 113, 5-(3-Trifluoromethyl-phenyl)-furan-2-carboxylic acid 4-methanesulfonylamino-3-fluoro-5-trifluomethyl-benzylamide], 1400 nM. On to `CC(C)c1cccc(Oc2ccc(C(=O)N[C@H](C)c3cc(F)c(NS(C)(=O)=O)c(F)c3)s2)c1` [Example 21, 5-(3-Isopropyl-phenoxy)-thiophene-2-carboxylic acid [1-(3,5-difluoro-4-methanesulfonylamino-phenyl)-ethyl]-amide], for which the inhibition at 10 µM under setting [1] worked out at 56%. In the case of `C[C@@H](NC(=O)c1coc(N2CCCC3CCCCC32)n1)c1cc(F)c(NS(C)(=O)=O)c(F)c1` (stereo partly shown) [Example 19, 2-(Octahydro-quinolin-1-yl)-oxazole-4-carboxylic acid [1-(3,5-difluoro-4-methanesulfonylamino-phenyl)-ethyl]-amide], the half-maximal inhibitory concentration (IC50) is 610 nM. With `C[C@@H](NC(=O)c1coc(Oc2cc(C(F)(F)F)ccn2)n1)c1cc(F)c(NS(C)(=O)=O)c(F)c1` [Example 25, 2-(4-Trifluoromethyl-pyridin-2-yloxy)-oxazole-4-carboxylic acid [1-(3,5-difluoro-4-methanesulfonylamino-phenyl)-ethyl]-amide], the concentration for half-maximal inhibition (IC50) was over 10000 nM. Still for that read-out and setting: for `CCCOc1cccc(-c2nc(C(=O)N[C@H](C)c3cc(F)c(NS(C)(=O)=O)c(F)c3)co2)c1` [Example 71, 2-(3-Propoxy-phenyl)-oxazole-4-carboxylic acid [1-(3,5-difluoro-4-methanesulfonylamino-phenyl)-ethyl]-amide] the value was 1200 nM. `C[C@@H](NC(=O)c1coc(Oc2ccc3ncccc3c2)n1)c1cc(F)c(NS(C)(=O)=O)c(F)c1` [Example 23, 2-(Quinolin-6-yloxy)-oxazole-4-carboxylic acid [1-(3,5-difluoro-4-methanesulfonylamino-phenyl)-ethyl]-amide]: the 50% inhibitory concentration (IC50) is 11900 nM. Turning to `C[C@@H](NC(=O)c1csc(Cc2ccc(F)c(F)c2)n1)c1cc(F)c(NS(C)(=O)=O)c(F)c1` [Example 11, (R)—N-[1-(3,5-Difluoro-4-methanesulfonylamino-phenyl)-ethyl]-2-(3,4-difluorobenzyl)-thiazole-4-amide], the concentration for half-maximal inhibition (IC50) was over 10000 nM. Consider `CC(C)c1ccccc1Oc1nc(C(=O)N[C@H](C)c2cc(F)c(NS(C)(=O)=O)c(F)c2)co1` [Example 3, 2-(2-Isopropyl-phenoxy)-oxazole-4-carboxylic acid [1-(3,5-difluoro-4-methanesulfonylamino-phenyl)-ethyl]-amide], for which the concentration for half-maximal inhibition (IC50) was 490 nM. Same read-out and setting: in the case of `C#Cc1cccc(Oc2nc(C(=O)N[C@H](C)c3cc(F)c(NS(C)(=O)=O)c(F)c3)co2)c1` [Example 27, 2-(3-Ethynyl-phenoxy)-oxazole-4-carboxylic acid [1-(3,5-difluoro-4-methanesulfonylamino-phenyl)-ethyl]-amide] it was 1600 nM; in that of `CS(=O)(=O)Nc1ccc(CNC(=O)c2cnc(-c3ccc(C(F)(F)F)cc3)s2)cc1F` [Example 122, 2-(4-Trifluoromethyl-phenyl)-thiazole-5-carboxylic acid 3-fluoro-4-methanesulfonylamino-benzylamide], 8800 nM. Regarding `Cc1cc(CNC(=O)c2ccc(-c3cccc(C(F)(F)F)c3)o2)cc(F)c1NS(C)(=O)=O` [Example 103, 5-(3-Trifluoromethyl-phenyl)-furan-2-carboxylic acid 3-fluoro-4-methanesulfonylamino-5-methyl-benzylamide], the inhibition at 3 µM (DRG neuron, @3 μM, read-out: Antagonist Calcium Uptake Test, percent inhibition of capsaicin response) came out at 84%.

Take `C[C@@H](NC(=O)c1csc(Cc2cccc(C(F)(F)F)c2)n1)c1cc(F)c(NS(C)(=O)=O)c(F)c1` (stereo in doubt) [Example 20, 2-(3-Trifluoromethyl-benzyl)-thiazole-4-carboxylic acid [1-(3,5-difluoro-4-methanesulfonylamino-phenyl)-ethyl]-amide]: the inhibition at 10 µM under setting [1] worked out at 67%. For `CC(C)Oc1cccc(Oc2nc(C(=O)N[C@H](C)c3cc(F)c(NS(C)(=O)=O)c(F)c3)co2)c1` [Example 48, 2-(3-Isopropoxy-phenoxy)-oxazole-4-carboxylic acid [1-(3,5-difluoro-4-methanesulfonylamino-phenyl)-ethyl]-amide], the IC50 came to 1200 nM.
